Tests used:
Assay type in all cases: in vivo
Tribolium castaneum = test: Topical activity against Tribolium castaneum (knockdown after 48 hours, LD50, relative to Resmethrin); settings: Tribolium castaneum adults, from LD50
Method: (§1) The insecticidal activities of the compounds of the Examples has been shown by the following tests in four species of insects, namely Aedes aegypti, Musca domestica, Blattella germanica, and Tribolium castaneum.
A 1 μl drop of a solution of test compound in AR acetone was applied topically to adult insects. Knockdown was recorded after 48 hours. Solutions of different concentrations were tested from which the concentration of solution which gives 50% knockdown (LD50) was determined.
(§2) The results are all expressed as activities relative to the activity of Resmathrin (assigned activity=100), determined by the methods described. [formula]

Musca domestica [1] = test: Topical activity against Musca domestica, compound alone (24 hours, LC50, relative to Resmethrin); settings: Musca domestica 3-day old adult females, without synergist, from LC50
Method: as §1
(§3) (i) A 1 μl drop of a solution of test compound in AR acetone (high purity acetone) was applied to the dorsal thorax of 3-day old adult females. Knockdown was recorded after 24 hours. Solutions of different concentration were tested from which the concentration of solution and therefore the amount of compound which gives 50% kill (LC50) was determined.
as §2

Megoura vicae = test: Knockdown of Megoura vicae (dip test); settings: Megoura vicae adults, knockdown after 24 hours
Source text: (§4) The activities of some of the compounds of the Examples has been shown in the following tests in three species of phytophagous arthropods, namely Megoura vicae, Plutella xylostella, Tetranychus cinnabarinus.
(§5) Aqueous suspensions of test compound were made by adding a solution of test compound in AR acetone to a solution of TWEEN 80 (200 p.p.m.) in water.
Adult insects were dipped individually for 4 seconds in the aqueous suspension of test compound and then placed on a filter paper in a Petri dish (9.0 cm diameter) with a p.t.f.e. rim. A 5.0 cm long piece of broad bean stem was added and the lid was put on. Knockdown was recorded after 24 hours.

Aedes aegypti = test: Larvicidal activity against Aedes aegypti (kill after 24 hours, LC50, relative to Resmethrin); settings: Aedes aegypti 3 day old larvae, from LC50
Method: as §1
A 0.2 cm^3 sample of a solution of test compound in AR acetone was applied to water (200 cm^3) containing 20 (3 day old) larvae. Kill was recorded after 24 hours. Solutions of different concentration were tested from which the concentration of solution which gives 50% kill (LC50) was determined.
as §2

Blattella germanica = test: Topical activity against Blattella germanica (24 hours, LC50, relative to Resmethrin); settings: Blattella germanica 1-4 week old adult males, from LC50
Method: as §1
A 2 μl drop of a solution of the test compound in AR acetone was applied between the rear coxae of 1-4 week old adult males. Knockdown was recorded after 24 hours. Solutions of different concentration were tested from which the concentration of solution which gives 50% kill (LC50) was determined.
as §2

Plutella xylostella = test: Knockdown of Plutella xylostella (cabbage leaf dip test); settings: foliar, Plutella xylostella 3rd instar larvae, knockdown after 24 hours, read-out: Plutella % KD at 25.0 ppm
Source text: as §4, §5
A 9.0 cm square of cabbage leaf was dipped for 4 seconds in the aqueous suspension of the test compound, and allowed to dry. The leaf was placed on filter paper in a Petri dish (9.0 cm). Five 3rd instar larvae were placed on the leaf, and the dish was placed in a polythene bag containing a wet cotton-wool pad. Knockdown was recorded after 24 hours.

Tetranychus cinnabarinus = test: Activity against Tetranychus cinnabarinus (dwarf French bean leaf dip test); settings: foliar, Tetranychus cinnabarinus adult mites, 48 hours, read-out: Tetranychus % KD at 500.0 ppm
Source text: as §4, §5
The two primary leaves of dwarf French beans were reduced to 2.5 cm squares, and they were infested with ca. 20 adult mites. The leaves were then dipped for 4 seconds in the aqueous suspension of the test compound and allowed to dry. Adult mortality was recorded after 48 hours.

Musca domestica [2] = test: Topical activity against Musca domestica with synergist piperonyl butoxide (24 hours, LC50, relative to Resmethrin); settings: Musca domestica 3-day old adult females, with 0.5% w/v piperonyl butoxide, from LC50
Method: as §1, §3
(ii) Similar tests were carried out with the amendment that to each test solution, 0.5% w/v of commercial insecticide synergist, piperonyl butoxide, was added.
as §2

CC(C)C(C(=O)OCc1cccc(Oc2ccccc2)c1)c1ccc2ccoc2c1 (stereo not drawn) [Example 1, m-Phenoxybenzyl α-isopropylbenzofuran-6-acetate]
Activity Relative to Resmethrin = 100, Tribolium (Tribolium castaneum): 102.9 | Activity Relative to Resmethrin = 100, Musca Alone (Musca domestica [1]): 88 | Megoura % KD at 1.0 ppm (Megoura vicae): 63.7% | Activity Relative to Resmethrin = 100, Aedes (Aedes aegypti): 182 | Activity Relative to Resmethrin = 100, Blattella (Blattella germanica): 197 | mortality at 25 ppm (Plutella xylostella): 97.5% | mortality at 500 ppm (Tetranychus cinnabarinus): 65.5% | Activity Relative to Resmethrin = 100, Musca with Synergist (Musca domestica [2]): 87

CC(C)C(C(=O)OCc1cccc(Oc2ccccc2)c1)c1ccc2sccc2c1 (stereo not drawn) [Example 3, m-Phenoxybenzyl α-isopropylbenzo(b)thiophene-5-acetate]
Activity Relative to Resmethrin = 100, Tribolium (Tribolium castaneum): 29.2 | Activity Relative to Resmethrin = 100, Musca Alone (Musca domestica [1]): 17 | Megoura % KD at 1.0 ppm (Megoura vicae): 61.25% | Activity Relative to Resmethrin = 100, Aedes (Aedes aegypti): 6.5 | Activity Relative to Resmethrin = 100, Blattella (Blattella germanica): 62 | mortality at 25 ppm (Plutella xylostella): 47.5% | mortality at 500 ppm (Tetranychus cinnabarinus): 76.7% | Activity Relative to Resmethrin = 100, Musca with Synergist (Musca domestica [2]): 100

CC(C)C(C(=O)OCc1cccc(Oc2ccccc2)c1)c1cccc2occc12 (stereo not drawn) [Example 5, m-Phenoxybenzyl α-isopropylbenzofuran-4-acetate]
Activity Relative to Resmethrin = 100, Tribolium (Tribolium castaneum): 50 | Activity Relative to Resmethrin = 100, Musca Alone (Musca domestica [1]): 9 | Megoura % KD at 1.0 ppm (Megoura vicae): 32.5% | Activity Relative to Resmethrin = 100, Aedes (Aedes aegypti): 211 | Activity Relative to Resmethrin = 100, Blattella (Blattella germanica): 20.7 | mortality at 25 ppm (Plutella xylostella): 57.5% | mortality at 500 ppm (Tetranychus cinnabarinus): 33.2% | Activity Relative to Resmethrin = 100, Musca with Synergist (Musca domestica [2]): 27

CC(C)C(C(=O)OCc1cccc(Oc2ccccc2)c1)c1ccc2c(Cl)coc2c1 (stereo not drawn) [Example 6, m-Phenoxybenzyl 3-chloro-α-isopropylbenzofuran-6-acetate]
Activity Relative to Resmethrin = 100, Tribolium (Tribolium castaneum): 80.4 | Activity Relative to Resmethrin = 100, Musca Alone (Musca domestica [1]): 20 | Activity Relative to Resmethrin = 100, Aedes (Aedes aegypti): 151 | Activity Relative to Resmethrin = 100, Musca with Synergist (Musca domestica [2]): 110

CC(C)C(C(=O)OC(C#N)c1cccc(Oc2ccccc2)c1)c1ccc2c(Cl)coc2c1 (stereo not drawn) [Example 7, α-Cyano-m-phenoxybenzyl 3-chloro-α-isopropylbenzofuran-6-acetate]
Activity Relative to Resmethrin = 100, Tribolium (Tribolium castaneum): 411 | Activity Relative to Resmethrin = 100, Musca Alone (Musca domestica [1]): 133 | Megoura % KD at 1.0 ppm (Megoura vicae): 98.3% | Activity Relative to Resmethrin = 100, Aedes (Aedes aegypti): 250 | Activity Relative to Resmethrin = 100, Blattella (Blattella germanica): 1240 | mortality at 25 ppm (Plutella xylostella): 100% | mortality at 500 ppm (Tetranychus cinnabarinus): 88.8% | Activity Relative to Resmethrin = 100, Musca with Synergist (Musca domestica [2]): 6060

CC(C)C(C(=O)OC(C#N)c1cccc(Oc2ccccc2)c1)c1cccc2occc12 (stereo not drawn) [Example 8, α-Cyano-m-phenoxybenzyl α-isopropylbenzofuran-4-acetate]
Activity Relative to Resmethrin = 100, Tribolium (Tribolium castaneum): 194 | Activity Relative to Resmethrin = 100, Musca Alone (Musca domestica [1]): 125 | Megoura % KD at 1.0 ppm (Megoura vicae): 66.9% | Activity Relative to Resmethrin = 100, Aedes (Aedes aegypti): 108 | Activity Relative to Resmethrin = 100, Blattella (Blattella germanica): 206 | mortality at 25 ppm (Plutella xylostella): 87.5% | mortality at 500 ppm (Tetranychus cinnabarinus): 100% | Activity Relative to Resmethrin = 100, Musca with Synergist (Musca domestica [2]): 926

CC(C)C(C(=O)OC(C#N)c1cccc(Oc2ccccc2)c1)c1ccc2occc2c1 (stereo not drawn) [Example 9, α-Cyano-m-phenoxybenzyl α-isopropylbenzofuran-5-acetate]
Activity Relative to Resmethrin = 100, Tribolium (Tribolium castaneum): 389 | Activity Relative to Resmethrin = 100, Musca Alone (Musca domestica [1]): 186 | Megoura % KD at 1.0 ppm (Megoura vicae): 93.75% | Activity Relative to Resmethrin = 100, Aedes (Aedes aegypti): 174 | Activity Relative to Resmethrin = 100, Blattella (Blattella germanica): 1378 | mortality at 25 ppm (Plutella xylostella): 90% | mortality at 500 ppm (Tetranychus cinnabarinus): 81.7% | Activity Relative to Resmethrin = 100, Musca with Synergist (Musca domestica [2]): 333

CC(C)C(C(=O)OC(C#N)c1cccc(Oc2ccccc2)c1)c1ccc2c(c1)CCO2 (stereo not drawn) [Example 10, α-Cyano-m-phenoxybenzyl 2,3-dihydro-α-isopropylbenzofuran-5-acetate]
Activity Relative to Resmethrin = 100, Tribolium (Tribolium castaneum): 159 | Activity Relative to Resmethrin = 100, Musca Alone (Musca domestica [1]): 18 | Megoura % KD at 1.0 ppm (Megoura vicae): 0% | Activity Relative to Resmethrin = 100, Aedes (Aedes aegypti): 286 | Activity Relative to Resmethrin = 100, Blattella (Blattella germanica): 207 | mortality at 500 ppm (Tetranychus cinnabarinus): < 20% | Activity Relative to Resmethrin = 100, Musca with Synergist (Musca domestica [2]): 575

CC(C)C(C(=O)OC(C#N)c1cccc(Oc2ccccc2)c1)c1ccc2cc(Br)oc2c1 (stereo not drawn) [Example 11, α-Cyano-m-phenoxybenzyl 2-bromo-α-isopropylbenzofuran-6-acetate]
Activity Relative to Resmethrin = 100, Tribolium (Tribolium castaneum): 88 | Activity Relative to Resmethrin = 100, Musca Alone (Musca domestica [1]): 68 | Megoura % KD at 1.0 ppm (Megoura vicae): 35% | Activity Relative to Resmethrin = 100, Aedes (Aedes aegypti): 160 | Activity Relative to Resmethrin = 100, Blattella (Blattella germanica): 207 | mortality at 500 ppm (Tetranychus cinnabarinus): < 20% | Activity Relative to Resmethrin = 100, Musca with Synergist (Musca domestica [2]): 417

CC(C)C(C(=O)OC(C#N)c1cccc(Oc2ccccc2)c1)c1ccc(Cl)c2occc12 (stereo not drawn) [Example 12, α-Cyano-m-phenoxybenzyl 7-chloro-α-isopropylbenzofuran-4-acetate]
Activity Relative to Resmethrin = 100, Tribolium (Tribolium castaneum): 100 | Activity Relative to Resmethrin = 100, Musca Alone (Musca domestica [1]): 140 | Megoura % KD at 1.0 ppm (Megoura vicae): 15% | Activity Relative to Resmethrin = 100, Aedes (Aedes aegypti): 417 | Activity Relative to Resmethrin = 100, Blattella (Blattella germanica): 207 | mortality at 500 ppm (Tetranychus cinnabarinus): < 10% | Activity Relative to Resmethrin = 100, Musca with Synergist (Musca domestica [2]): 454

CC(C)C(C(=O)OC(C#N)c1cccc(Oc2ccccc2)c1)c1ccc(Cl)c2oc(Br)cc12 (stereo not drawn) [Example 13, α-Cyano-m-phenoxybenzyl 2-bromo-7-chloro-α-isopropylbenzofuran-4-acetate]
Activity Relative to Resmethrin = 100, Tribolium (Tribolium castaneum): < 2 | Activity Relative to Resmethrin = 100, Musca Alone (Musca domestica [1]): 10 | Megoura % KD at 1.0 ppm (Megoura vicae): 86.6% | Activity Relative to Resmethrin = 100, Aedes (Aedes aegypti): 267 | Activity Relative to Resmethrin = 100, Blattella (Blattella germanica): < 10 | mortality at 500 ppm (Tetranychus cinnabarinus): < 10% | Activity Relative to Resmethrin = 100, Musca with Synergist (Musca domestica [2]): 417

Cc1oc2cc(C(C(=O)OC(C#N)c3cccc(Oc4ccccc4)c3)C(C)C)ccc2c1C (stereo not drawn) [Example 14, α-Cyano-m-phenoxybenzyl 2,3-dimethyl-α-isopropylbenzofuran-6-acetate]
Activity Relative to Resmethrin = 100, Tribolium (Tribolium castaneum): < 17.5 | Activity Relative to Resmethrin = 100, Musca Alone (Musca domestica [1]): 12 | Megoura % KD at 1.0 ppm (Megoura vicae): 93.3% | Activity Relative to Resmethrin = 100, Aedes (Aedes aegypti): 200 | Activity Relative to Resmethrin = 100, Blattella (Blattella germanica): 62 | mortality at 500 ppm (Tetranychus cinnabarinus): 46.7% | Activity Relative to Resmethrin = 100, Musca with Synergist (Musca domestica [2]): 179

Cc1oc2cc(C(C(=O)OCc3cccc(Oc4ccccc4)c3)C(C)C)ccc2c1C (stereo not drawn) [Example 15, m-Phenoxybenzyl 2,3-dimethyl-α-isopropylbenzofuran-6-acetate]
Activity Relative to Resmethrin = 100, Tribolium (Tribolium castaneum): 4.7 | Activity Relative to Resmethrin = 100, Musca Alone (Musca domestica [1]): 1 | Megoura % KD at 1.0 ppm (Megoura vicae): 90% | Activity Relative to Resmethrin = 100, Aedes (Aedes aegypti): 118 | Activity Relative to Resmethrin = 100, Blattella (Blattella germanica): < 10 | mortality at 500 ppm (Tetranychus cinnabarinus): 100% | Activity Relative to Resmethrin = 100, Musca with Synergist (Musca domestica [2]): 24
